The structures appear in SMILES notation.

In the case of `Cc1nn(C)c(=O)n1-c1ccccc1COc1ccn(-c2ccc(Cl)cc2)n1`, the melting point fell in the range of 107 to 109 °C.

Usually melting point stands for the temperature, or range, at which the solid turns liquid.

Source of the values: patent US7056941B1 (priority 1997, dated 2006).
